Data on three molecules can be found in patent publication US8394986B2, “Phenoxiacetic acid derivatives” (AstraZeneca AB, priority 2003, dated 2013).

For orientation: IC50 means the concentration that gives 50% inhibition. Read a high IC50 as weaker potency in that assay.

This assay deals with T1, rhCRTh2 (Homo sapiens, UniProt Q9Y5Y4).
T1 construct: expressed in transfected cells; membranes prepared
T1 sequence (Q9Y5Y4 1-395): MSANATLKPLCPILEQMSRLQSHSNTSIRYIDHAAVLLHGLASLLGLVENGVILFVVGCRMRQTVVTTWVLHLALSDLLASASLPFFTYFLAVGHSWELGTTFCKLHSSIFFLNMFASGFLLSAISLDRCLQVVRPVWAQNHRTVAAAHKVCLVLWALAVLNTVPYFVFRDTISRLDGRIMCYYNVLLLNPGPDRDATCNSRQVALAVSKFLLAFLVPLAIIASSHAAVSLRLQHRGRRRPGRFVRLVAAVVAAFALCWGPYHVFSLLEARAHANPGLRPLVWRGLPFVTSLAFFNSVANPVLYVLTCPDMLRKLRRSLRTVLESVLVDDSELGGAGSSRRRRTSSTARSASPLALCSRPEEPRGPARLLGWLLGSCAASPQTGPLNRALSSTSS
Briefly: Ligand binding assay ([3H]PGD2 SPA, HEK cell membranes). The note with it: [3H]PGD2 displacement, membranes of HEK cells expressing rhCRTh2/Ga16, SPA beads, 2 hours room temperature. The method, then:
[^3H]PGD2 was purchased from Perkin Elmer Life Sciences with a specific activity of 100-210 Ci/mmol All other chemicals were of analytical grade.
HEK cells expressing rhCRTh2/Ga16 were routinely maintained in DMEM containing 10% Foetal Bovine Serum (HyClone), 1 mg/ml geneticin, 2 mM L-glutamine and 1% non-essential amino acids. For the preparation of membranes, the adherent transfected HEKcells were grown to confluence in two layer tissue culture factories (Fisher, catalogue number TKT-170-070E). Maximal levels of receptor expression were induced by addition of […] sodium butyrate for the last 18 hours of culture. The adherent cells were washed once with phosphate buffered saline (PBS, 50 ml per cell factory) and detached by the addition of 50 ml per cell factory of ice-cold membrane homogenisation buffer [20 mM HEPES (pH 7.4), 0.1 mM dithiothreitol, 1 mM EDTA, 0.1 mM phenyl methyl sulphonyl fluoride and 100 μg/ml bacitracin]. […] The final pellet was re-suspended in 4 ml of membrane homogenisation buffer per cell factory used and the protein content determined Membranes were stored at −80° C. in suitable aliquots.
All assays were performed in Corning clear bottomed, white 96-well NBS plates (Fisher). […] (The optimum coating concentrations were determined for each batch of membranes) The beads were pelleted by centrifugation (800×g for 7 minutes at 4° C.), washed once with assay buffer (50 mM HEPES pH 7.4 containing 5 mM magnesium chloride) and finally re-suspended in assay buffer at a bead concentration of 10 mg/ml.
Each assay contained 20 μl of 6.25 nM [^3H]PGD2, 20 μl membrane saturated SPA beads both in assay buffer and 10 μl of compound solution or 13,14-dihydro-15-keto prostaglandin D2 (DK-PGD2, for determination of non-specific binding, Cayman chemical company). […] The assay plate was incubated at room temperature for 2 hours and counted on a Wallac Microbeta liquid scintillation counter (1 minute per well).

Counter-ions that a name gives are not always drawn.

Molecule `CCS(=O)(=O)c1ccc(Cc2cc(C(F)(F)F)ccc2OCC(=O)O)cc1` [Example 4, [2-[4-(Ethylsulfonyl)benzyl]-4-(trifluoromethyl)phenoxy]acetic acid] showed an IC50 of 10 nM.
On to `CCS(=O)(=O)c1ccc(Oc2cc(Cl)ccc2OCC(=O)O)cc1` [Example 5, [4-Chloro-2-[4-(ethylsulfonyl)phenoxy]phenoxy]acetic acid, sodium salt], for which the half-maximal inhibitory concentration (IC50) is 10 nM.
Consider `CCS(=O)(=O)c1ccc(Oc2cc(F)ccc2OCC(=O)O)c(Cl)c1` [Example 43, {2-[2-Chloro-4-(ethylsulfonyl)phenoxy]-4-fluorophenoxy}acetic acid], for which the IC50 is 1 nM.
